This is an account of results in US11641858B2, “Agricultural chemicals” (Redag Crop Protection Ltd, priority 2016, dated 2023).

Where two headings read alike, the source gives them in different places.

In one test the test system is Pythium ultimum. The test is described as follows: Amended agar assay (potato dextrose agar), reduction in colony growth. The test is classed as cell-based. Particulars: for inhibition of growth at 20 ppm / EC50: Globisporangium ultimum; for inhibition of growth at 20 ppm / control over the fungal pathogens tested (in words): primary screen at 20 ppm; for inhibition of growth at 20 ppm: read-out: % control at 20 ppm; for EC50: read-out: Pythium ultimum (EC50). The procedure:
(§1) Testing was carried out on potato dextrose agar (PDA) amended with each compound at test concentrations of 20, 4 and 0.8, 0.16 and 0.032 ppm. Amended agar at each test concentration was poured into three replicate 9 cm petri dishes. Each replicate dish was inoculated in the centre with a 5 mm agar plug taken from the leading edge of a culture aged between 2 and 7 days old; the age of the culture was dependant on the growth rate of the pathogen being tested. The test pathogens were Pythium ultimum and Phytophthora cinnamomi. Plates were incubated at 18° C. and the diameter of each colony measured before growth on the fastest growing plate reached the plate edge. This varied between 2 and 7 days depending on the growth rate of test pathogens. The % reduction in colony growth compared to the control was calculated for each test concentration and pathogen combination.
(§2) The results are shown in Table 1 in which * represents an average control of up to 50% at said dosage; ** represents an average control of 50% or greater but less than 80% at said dosage; and *** represents an average control of 80% or greater at said dosage.
(§3) A primary screen was also conducted for a number of other compounds of the invention. The screen was conducted at 20 ppm and the results are provided in Table 2, in which D represents no control detected at this concentration; C represents up to 50% control; B from 50 to 99% control; and A represents a control of greater than 99%.
(§4) Alternatively, or in addition, the same assay was conducted at descending test concentrations with 5-fold dilutions typically down to 0.032 ppm, and an EC50 (the concentration at which 50% control would be achieved) was determined. The results are provided in Table 1 in which G represents an EC50 above 20 ppm, F represents an EC50 of 2-20 ppm and E represents and EC50 less than 2 ppm.

The test system of another test is Phytophthora cinnamomi. The test is described as above. The test is classed as cell-based. Particulars: for inhibition of growth at 20 ppm / control over the fungal pathogens tested (in words): primary screen at 20 ppm; for inhibition of growth at 20 ppm: read-out: % control at 20 ppm; for EC50: read-out: Phytophthora cinnamomi (EC50). The procedure:
as §1, §2, §3, §4

[1] abbreviates: Pythium ultimum, dose 0.032 ppm in amended agar.
Where [2] appears, read: Pythium ultimum, dose 0.16 ppm in amended agar.
Where [3] appears, read: Pythium ultimum, dose 0.8 ppm in amended agar.
The mark [4] stands for this setting: Pythium ultimum, dose 4 ppm in amended agar.
The mark [5] stands for this setting: Pythium ultimum, dose 20 ppm in amended agar.
Where [6] appears, read: descending test concentrations, 5-fold dilutions typically down to 0.032 ppm.

One may read the EC50 as the concentration needed to bring the measured effect to its halfway point.

As to `Cn1nnnc1C(=NOCc1cccc(NC(=O)C(F)(F)Oc2ccccc2)n1)c1ccccc1` [A, reference compound], the inhibition of growth at 20 ppm in the test with Pythium ultimum (Pythium ultimum) and in the test on Phytophthora cinnamomi was over 99% each time. For the same compound, the “average % control at given dosage” value in the test on Pythium ultimum (setting [1]), with Pythium ultimum (setting [2]), with Pythium ultimum (setting [3]), in the test on Pythium ultimum (setting [4]), with Pythium ultimum (setting [5]) and in the test with Phytophthora cinnamomi (dose 0.032 ppm in amended agar) was “*** (an average control of 80% or greater at said dosage)” each time. Further, the “average % control at given dosage” value in the test with Phytophthora cinnamomi (dose 0.16 ppm in amended agar), in the test on Phytophthora cinnamomi (dose 0.8 ppm in amended agar), in the test on Phytophthora cinnamomi (dose 4 ppm in amended agar) and with Phytophthora cinnamomi (dose 20 ppm in amended agar) was “*** (an average control of 80% or greater at said dosage)” in each case.

Turning to `Cn1nnnc1N(C(=O)OCc1cccc(NC(=O)C(F)(F)Oc2ccccc2)n1)c1ccccc1` [B, reference compound], the “average % control at given dosage” value in the test on Pythium ultimum (setting [1]) is reported as “* (an average control of up to 50% at said dosage)”; with Pythium ultimum (setting [2]), “** (an average control of 50% or greater but less than 80% at said dosage)”; in the test on Pythium ultimum (setting [3]) it was “** (an average control of 50% or greater but less than 80% at said dosage)”; in the test on Pythium ultimum (setting [4]) it was “*** (an average control of 80% or greater at said dosage)”; in the test with Pythium ultimum (setting [5]), “*** (an average control of 80% or greater at said dosage)”; in the test on Phytophthora cinnamomi (dose 0.032 ppm in amended agar) it was “* (an average control of up to 50% at said dosage)”. The “average % control at given dosage” value in the test on Phytophthora cinnamomi (dose 0.16 ppm in amended agar), with Phytophthora cinnamomi (dose 0.8 ppm in amended agar), with Phytophthora cinnamomi (dose 4 ppm in amended agar) and in the test with Phytophthora cinnamomi (dose 20 ppm in amended agar) was “** (an average control of 50% or greater but less than 80% at said dosage)” throughout.

Turning to `Cn1nnnc1-n1c(OCc2cccc(NC(=O)C(F)(F)Oc3ccccc3)n2)nc2ccccc21` [Example 1, 2,2-Difluoro-N-(6-(((1-(1-methyl-1H-tetrazol-5-yl)-1H-benzo[d]imidazol-2-yl)oxy)methyl)pyridin-2-yl)-2-phenoxyacetamide], the inhibition of growth at 20 ppm in the test on Pythium ultimum (Pythium ultimum) and in the test with Phytophthora cinnamomi was over 99% throughout. Further, the EC50 with Pythium ultimum (setting [6]) and in the test with Phytophthora cinnamomi (setting [6]) was under 2 µg/mL in each case. Also, the “control over the tested oomycete fungal plant pathogens (in words)” value in the test with Pythium ultimum (Pythium ultimum, Table 1 doses 0.032-20 ppm, even at low concentrations) is recorded as “excellent control”; in the test with Phytophthora cinnamomi (Table 1 doses 0.032-20 ppm, even at low concentrations) it was “excellent control”. Besides, the “average % control at given dosage” value in the test on Pythium ultimum (setting [1]), in the test with Pythium ultimum (setting [2]), in the test with Pythium ultimum (setting [3]), in the test with Pythium ultimum (setting [4]), with Pythium ultimum (setting [5]) and with Phytophthora cinnamomi (dose 0.032 ppm in amended agar) was “*** (an average control of 80% or greater at said dosage)” in each case. Also, the “average % control at given dosage” value in the test with Phytophthora cinnamomi (dose 0.16 ppm in amended agar), with Phytophthora cinnamomi (dose 0.8 ppm in amended agar), with Phytophthora cinnamomi (dose 4 ppm in amended agar) and in the test with Phytophthora cinnamomi (dose 20 ppm in amended agar) was “*** (an average control of 80% or greater at said dosage)” in each case. The “control over the fungal pathogens tested (in words)” value with Pythium ultimum (Pythium ultimum) and in the test on Phytophthora cinnamomi was “excellent control” in each case.

For the compound `Cn1nnnc1-n1c(OCc2cccc(NC(=O)OC(C)(C)C)n2)nc2ccccc21` [Example 2], the inhibition of growth at 20 ppm with Pythium ultimum (Pythium ultimum) and with Phytophthora cinnamomi was over 99% in each case. For the same compound, the EC50 in the test on Pythium ultimum (setting [6]) and in the test on Phytophthora cinnamomi (setting [6]) was under 2 µg/mL each time. For the same compound, the “control over the fungal pathogens tested (in words)” value with Pythium ultimum (Pythium ultimum) and in the test with Phytophthora cinnamomi was “excellent control” in each case.

On to `Cc1cccnc1-n1c(OCc2cccc(NC(=O)C(F)(F)Oc3ccccc3)n2)nc2ccccc21` [Example 3], for which the inhibition of growth at 20 ppm in the test on Pythium ultimum (Pythium ultimum) and with Phytophthora cinnamomi was 50 to 99% in each case. The EC50 in the test on Pythium ultimum (setting [6]) and in the test on Phytophthora cinnamomi (setting [6]) was under 2 µg/mL in each case.

Consider `Cn1nccc1-n1c(OCc2cccc(NC(=O)C(F)(F)Oc3ccccc3)n2)nc2ccccc21` [Example 4], for which the inhibition of growth at 20 ppm in the test with Pythium ultimum (Pythium ultimum) and with Phytophthora cinnamomi was 50 to 99% each time. Further, the concentration giving a half-maximal response (EC50) in the test with Pythium ultimum (setting [6]) and in the test on Phytophthora cinnamomi (setting [6]) was under 2 µg/mL each time.

With `Cc1noc(-n2c(OCc3cccc(NC(=O)C(F)(F)Oc4ccccc4)n3)nc3ccccc32)c1C` [Example 5, N-(6-(((1-(3,4-Dimethylisoxazol-5-yl)-1H-benzo[d]imidazol-2-yl)oxy)methyl)pyridin-2-yl)-2,2-difluoro-2-phenoxyacetamide], the results for the inhibition of growth at 20 ppm in the test on Pythium ultimum (Pythium ultimum) and with Phytophthora cinnamomi were 50 to 99% and under 50%, respectively.

`Cn1nnnc1-n1c(OCc2cccc(NC(=O)C(F)(F)Oc3ccccc3)n2)nc2ccc(F)cc21` [Example 6]: the inhibition of growth at 20 ppm in the test on Pythium ultimum (Pythium ultimum) and in the test on Phytophthora cinnamomi was over 99% each time. Moreover, the EC50 with Pythium ultimum (setting [6]) and in the test with Phytophthora cinnamomi (setting [6]) was under 2 µg/mL each time. In addition, the “control over the fungal pathogens tested (in words)” value in the test on Pythium ultimum (Pythium ultimum) and with Phytophthora cinnamomi was “excellent control” in each case.

`O=C(Nc1cccc(COc2nc3ccccc3n2-c2ccccn2)n1)C(F)(F)Oc1ccccc1` [Example 7]: the EC50 in the test with Pythium ultimum (setting [6]) and in the test on Phytophthora cinnamomi (setting [6]) was over 20 µg/mL throughout.

For `Cc1cc(-n2c(OCc3cccc(NC(=O)C(F)(F)Oc4ccccc4)n3)nc3ccccc32)sn1` [Example 8], the inhibition of growth at 20 ppm in the test on Pythium ultimum (Pythium ultimum) was under 50%.

On to `O=C(Nc1cccc(COc2nc3ccccc3n2-c2ccon2)n1)C(F)(F)Oc1ccccc1` [Example 9], for which the concentration giving a half-maximal response (EC50) with Pythium ultimum (setting [6]) and in the test on Phytophthora cinnamomi (setting [6]) was over 20 µg/mL throughout.

In the case of `CC(=O)Nc1cccc(COc2nc3ccccc3n2-c2nnnn2C)n1` [Example 10, N-(6-(((1-(1-Methyl-1H-tetrazol-5-yl)-1H-benzo[d]imidazol-2-yl)oxy)methyl)pyridin-2-yl)acetamide], the inhibition of growth at 20 ppm was 45 to 55% with Pythium ultimum (Pythium ultimum) and 50 to 99% in the test on Phytophthora cinnamomi.

In the case of `CCOC(=O)Nc1cccc(COc2nc3ccccc3n2-c2nnnn2C)n1` [Example 11, Ethyl (6-(((1-(1-methyl-1H-tetrazol-5-yl)-1H-benzo[d]imidazol-2-yl)oxy)methyl)pyridin-2-yl)carbamate], the inhibition of growth at 20 ppm with Pythium ultimum (Pythium ultimum) was over 99%; in the test on Phytophthora cinnamomi, 50 to 99%. The concentration giving a half-maximal response (EC50) in the test on Pythium ultimum (setting [6]) and with Phytophthora cinnamomi (setting [6]) was under 2 µg/mL each time. The “control over the fungal pathogens tested (in words)” value in the test on Pythium ultimum (Pythium ultimum) and with Phytophthora cinnamomi was “excellent control” in each case.

On to `Cn1nnnc1-n1c(OCc2cccc(NC(=O)OC3CCCC3)n2)nc2ccccc21` [Example 12], for which the half-maximal effective concentration (EC50) in the test on Pythium ultimum (setting [6]) and in the test on Phytophthora cinnamomi (setting [6]) was under 2 µg/mL each time.

Consider `CCCCOC(=O)Nc1cccc(COc2nc3ccccc3n2-c2nnnn2C)n1` [Example 13], for which the EC50 with Pythium ultimum (setting [6]) and in the test on Phytophthora cinnamomi (setting [6]) was under 2 µg/mL throughout.

With `Cn1nnnc1-n1c(OCc2cccc(NC(=O)OCc3ccccc3)n2)nc2ccccc21` [Example 14], the EC50 in the test on Pythium ultimum (setting [6]) and with Phytophthora cinnamomi (setting [6]) was under 2 µg/mL in each case.

As to `Cn1nnnc1-n1c(OCc2cccc(NC(=O)Oc3ccccc3)n2)nc2ccccc21` [Example 15], the EC50 with Pythium ultimum and in the test on Phytophthora cinnamomi was under 2 µg/mL in each case.

`CCCCCOC(=O)Nc1cccc(COc2nc3ccccc3n2-c2nnnn2C)n1` [Example 16]: the EC50 in the test with Pythium ultimum (setting [6]) and in the test with Phytophthora cinnamomi (setting [6]) was under 2 µg/mL each time.

For the compound `CC(C)OC(=O)Nc1cccc(COc2nc3ccccc3n2-c2nnnn2C)n1` [Example 17], the concentration for a half-maximal effect (EC50) in the test with Pythium ultimum (setting [6]) and in the test with Phytophthora cinnamomi (setting [6]) was under 2 µg/mL in each case.

With `CC(C)COC(=O)Nc1cccc(COc2nc3ccccc3n2-c2nnnn2C)n1` [Example 18], the EC50 in the test with Pythium ultimum (setting [6]) and in the test with Phytophthora cinnamomi (setting [6]) was under 2 µg/mL throughout.
